Laboratory results from patent US20060014231A1, “Methods and compositions to promote bone homeostasis” (priority 2004, published 2006).

Assays:
[1] = target: T1, NR1H3 (Homo sapiens, UniProt Q13133); experiment: Osteogenic marker mRNA levels in MPCs, Ad-NR1H3+T0901317 (rtRT-PCR); format: cell-based; conditions: Ad-NR1H3+T0901317 (1 μM); up-regulated = 4-fold higher than Ad-eGFP or Ad-luciferase; one or more time points
T1 construct: amplification of the complete open reading frame from ATG start codon to the stop codon of drugable genes; expressed in transfected cells; host or cells: primary human bone-marrow mesenchymal progenitor cells (MPCs), adenoviral transduction (Ad5-NR1H3 with Ad-hCAR)
T1 sequence (Q13133 1-447): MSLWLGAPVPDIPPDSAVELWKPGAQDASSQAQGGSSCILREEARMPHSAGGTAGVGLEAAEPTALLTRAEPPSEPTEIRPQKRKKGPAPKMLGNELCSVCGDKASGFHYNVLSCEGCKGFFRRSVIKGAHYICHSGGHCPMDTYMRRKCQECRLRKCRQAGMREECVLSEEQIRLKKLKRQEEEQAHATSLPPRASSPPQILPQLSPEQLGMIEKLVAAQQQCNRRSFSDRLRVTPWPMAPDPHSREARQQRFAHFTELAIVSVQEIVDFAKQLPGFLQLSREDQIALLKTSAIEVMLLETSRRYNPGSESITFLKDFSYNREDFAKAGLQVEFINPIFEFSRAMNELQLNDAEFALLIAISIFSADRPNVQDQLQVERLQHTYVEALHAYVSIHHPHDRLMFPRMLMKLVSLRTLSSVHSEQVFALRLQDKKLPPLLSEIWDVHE
Protocol: 100,000 MPCs are seeded in each well of a 6 well plate in 2 ml MPC medium, containing 10% FCS. The next day, after incubation at 37° C., 10% CO2 in a humidified incubator, cells are co-infected with AdC15-hCAR (final MOI of 750) and Ad-NR5A2, Ad-NR1H3+T0901317 (1 μM) or Ad-BMP2 (positive control) or Ad-eGFP or Ad-luciferase as negative controls (final MOIs of 1250 and 2500). Cells are incubated at 37° C., 10% CO2 in a humidified incubator for a further six days unless cells are already harvested for RNA isolation. Virus is removed and replaced by 2 ml fresh OS medium (proprietary medium containing 10% FCS). Over the next 3 weeks, medium is refreshed 3 times per 2 weeks. Every other time, medium is refreshed half or completely. Monolayers are harvested at several time points (see FIG. 15), total RNA is harvested and quantified and rtRT-PCRs are run as follows: monolayers are washed with ice cold PBS and harvested by adding SV RNA Lysis Buffer. Total RNA is prepared using the SV Total RNA isolation System (Promega, Cat # Z3100). RNA concentration is measured with the Ribogreen RNA Quantification kit (Molecular Probes, Leiden, The Netherlands, Cat No. R-11490). cDNA synthesis is performed using 20 ng total RNA per reaction using the TaqMan Universal PCR Master Mix, No AmpErase UNG, kit (Applied Biosystems, Warrington, UK, Part number 4324018). For each reverse transcriptase (RT) reaction a minus-RT reaction (negative control: no enzyme included in the reaction) is performed. The real-time reverse transcriptase (rtRT)-PCR reaction is performed with gene specific primers on both cDNA and minus-RT samples, using the SYBR Green PCR Master Mix (Applied Biosystems, Warrington, UK, Part number 4309155). Primers are quality controlled by performing PCR reactions on human genomic DNA and on plasmids containing the cDNA encoded by the gene studied if available. If the quality is unsatisfactory, additional primers are designed or validated primer sets are purchased (ABI). For the normalization of the expression levels a RT-PCR reaction is performed on human P-actin using the Human P-actin kit (Applied Biosystems, Warrington, UK, Part number 4310881E). The following program is run on a real-time PCR apparatus (ABI PRISM 7000 Sequence Detection System): 10 min at 25° C., 30 min at 48° C., 5 min at 95° C.
Expression levels for osteogenic marker genes are first normalized for beta-actin levels. The resulting data for Ad-BMP2, Ad-NR5A2 and Ad-NR1H3+T0901317 (1 μM) samples are then compared to those of Ad-eGFP or Ad-luciferase negative control samples, harvested at the same time points, for cells infected at the same MOI.

[2] = target: T1, NR1H3; experiment: Alkaline phosphatase (AP) assay in MPCs infected with Ad-NR1H3 and treated with ligand; format: cell-based
Protocol: Cellular AP activity is determined 6 days after the infection (or ligand addition—see below). The principle of the assays is depicted in FIG. 2. Mesenchymal stem cells derived from bone marrow are infected with the FLeXSelect™ cDNA library viruses in the presence of Ad5C15-hCAR or Ad5C20-hCAR virus. Six days after the start of infection or treatment with a ligand, endogenous alkaline phosphatase activity is measured following addition of 4-methylumbelliferyl […] (MUP) substrate.
The stocks of the Ad-control-viruses are generated in 96 well plates (control plate). The 2 μl volume corresponds to a theoretical MOI of 5000. Controls are: P1=Ad-BMP2; P2=Ad-H4-2; P3=Ad-H4-291; N1=Ad-LacZ; N2=Ad-empty; N3=Ad-eGFP. Up-regulation of alkaline phosphatase is read at 6 days post infection (6 dpi): 15 μl 4-Methylumbelliferyl-phosphate (MUP, Sigma) is added to each well, the plates are incubated for 15 min at 37° C. and monitored for AP activity using a fluorescence plate reader (Fluostar, BMG).
These dose-response curves are depicted in FIG. 5. […] MPCs are seeded on day 0 at 1000 cells per well of a 384 well plate and co-infected the next day using AdC51-hCAR (MOI 250) and different MOIs of Ad5-NR1H3 (MOI 12000, 4000, 1333, 444).
After 6 days, medium is removed and replaced with fresh medium containing the same concentrations of the compound GW3965. Readouts of AP activity are performed at several time points after the start of the experiment, typically after 7, 10 and 13 days.
After 6 days, medium is removed and replaced with fresh medium containing the same concentrations of the compound APD.

- BAP mRNA expression [1]: up-regulated
- PTHR1 mRNA expression [1]: up-regulated
- RANKL mRNA expression [1]: up-regulated
- aromatase mRNA expression [1]: up-regulated
- osteopontin mRNA expression [1]: up-regulated
- induction of AP activity in MPC isolates from 4 different donors ([2]; Ad-NR1H3 MOI 2500 + T0901317 at different concentrations, 6 days): induce AP activity to similar extents
- up-regulation of endogenous alkaline phosphatase (AP) activity ([2]; MPCs infected with Ad-NR1H3, increasing ligand concentrations, MUP fluorescence readout): dose-dependently increase
SMILES: O=S(=O)(c1ccccc1)N(CC(F)(F)F)c1ccc(C(O)(C(F)(F)F)C(F)(F)F)cc1 [T0901317]
